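Each compound was tested at five concentrations against cells in 96-well plates for 48 hours. The concentration for 50% growth inhibition is given as GI50. TGI is the concentration that stops growth completely.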 A value given as a limit tells only on which side of the number the result lay.

The text below walks through data of PubChem BioAssay (NCI).

Among the test systems are SK-OV-3 ovarian; SN12C renal; HCT-116 colon; IGROV1 ovarian; RPMI-8226 leukemia; LOX IMVI melanoma; SF-295 CNS; MCF7 breast; A498 renal; BT-549 breast.
Holding throughout (experiment): inhibition of tumour cell growth, NCI panel, 48 h

Take `C=C1N(C=O)C(C)(C)N(O)C1(C)C`: the TGI in the test with SK-OV-3 ovarian, with SN12C renal, with HCT-116 colon, in the test with IGROV1 ovarian, with RPMI-8226 leukemia and in the test with LOX IMVI melanoma was greater than 100 µM throughout. Besides, the TGI in the test with SF-295 CNS and with MCF7 breast was greater than 100 µM throughout.

With `O=S(=O)(O)c1ccc(N=Nc2ccc(N=Nc3ccc(/C=C/c4ccc(N=[N+]([O-])c5ccc(/C=C/c6ccc(N=Nc7ccc(N=Nc8ccc(S(=O)(=O)O)cc8)cc7)cc6S(=O)(=O)O)c(S(=O)(=O)O)c5)cc4S(=O)(=O)O)c(S(=O)(=O)O)c3)cc2)cc1`, the TGI in the test on SK-OV-3 ovarian, in the test with SN12C renal, in the test on HCT-116 colon, with IGROV1 ovarian, in the test on RPMI-8226 leukemia and in the test with LOX IMVI melanoma was greater than 100 µM each time. Further, the TGI in the test with SF-295 CNS, in the test on MCF7 breast and with A498 renal was greater than 100 µM in each case.

For the molecule `Cc1ccc(C(=O)N/N=C(\N=Nc2ccccc2)c2ccc(N(C)C)cc2)cc1`, the TGI with SK-OV-3 ovarian, in the test on SN12C renal, in the test with HCT-116 colon, in the test with IGROV1 ovarian, in the test on RPMI-8226 leukemia and in the test with LOX IMVI melanoma was greater than 100 µM in each case. Besides, the TGI with SF-295 CNS, in the test on MCF7 breast and in the test with BT-549 breast was greater than 100 µM each time.

Regarding `Cc1c(CN2CCN(C)CC2)c(CN2CCN(C)CC2)c(C)n1-c1ccc(Cl)cc1`, the TGI in the test with SK-OV-3 ovarian is greater than 100 µM; in the test with SN12C renal, greater than 100 µM; in the test on HCT-116 colon, greater than 100 µM; in the test with IGROV1 ovarian, greater than 100 µM; with RPMI-8226 leukemia, greater than 100 µM; in the test on SF-295 CNS, 48.9 µM. Moreover, the TGI in the test on MCF7 breast was greater than 100 µM; in the test on A498 renal, 51.2 µM; in the test on BT-549 breast, greater than 100 µM.

For the molecule `CCOC(=O)C1(C#N)C(c2ccccc2)CC(O)(c2ccc(Cl)cc2)C(C(=O)c2ccc(Cl)cc2)C1c1ccccc1` (stereo unspecified), the TGI with SK-OV-3 ovarian, in the test on SN12C renal, with HCT-116 colon, in the test with IGROV1 ovarian, in the test on RPMI-8226 leukemia and with LOX IMVI melanoma was greater than 100 µM throughout. Besides, the TGI in the test on SF-295 CNS was greater than 100 µM.

In the case of `CCc1c(CNc2ccc(C(=O)NC(CC(=O)O)C(=O)O)cc2)ccc2nc(N)nc(N)c12` (stereo unspecified), the results for the GI50 with SK-OV-3 ovarian, in the test on RPMI-8226 leukemia and in the test with BT-549 breast were greater than 1000 µM, 1.28 µM and 685 µM, respectively. For the same molecule, the TGI with SK-OV-3 ovarian, in the test on SN12C renal, in the test on HCT-116 colon, in the test on IGROV1 ovarian, in the test with RPMI-8226 leukemia and with LOX IMVI melanoma was greater than 1000 µM throughout. Also, the TGI with SF-295 CNS, in the test on MCF7 breast and in the test with BT-549 breast was greater than 1000 µM throughout.

With `CO[C@H]1SC[C@H](OC(C)=O)[C@H](OC(C)=O)[C@H]1OC(C)=O`, the TGI in the test with SN12C renal, with HCT-116 colon, with IGROV1 ovarian, in the test with RPMI-8226 leukemia, in the test with LOX IMVI melanoma and with SF-295 CNS was greater than 100 µM throughout. Besides, the TGI with MCF7 breast and with BT-549 breast was greater than 100 µM each time.

On to `O=c1[nH]c2nc3ccccc3nc2[nH]c1=O`, for which the TGI with SK-OV-3 ovarian, in the test on SN12C renal, in the test on HCT-116 colon, in the test with IGROV1 ovarian, with RPMI-8226 leukemia and in the test on LOX IMVI melanoma was greater than 100 µM throughout. Also, the TGI with SF-295 CNS and in the test with MCF7 breast was greater than 100 µM each time.

Take `O=C1C=CC(=O)N1n1c(-c2ccccc2)n[nH]c1=O`: the TGI with SK-OV-3 ovarian, with SN12C renal, in the test on HCT-116 colon, with IGROV1 ovarian, with SF-295 CNS and in the test on MCF7 breast was greater than 100 µM in each case. The TGI in the test with A498 renal and with BT-549 breast was greater than 100 µM in each case.

For the molecule `O=c1cc(-c2ccncc2)[nH]c2cc3c(cc12)OCO3`, the TGI with SK-OV-3 ovarian, in the test with SN12C renal, in the test on HCT-116 colon, in the test on IGROV1 ovarian, in the test with RPMI-8226 leukemia and in the test with SF-295 CNS was greater than 100 µM in each case. Also, the TGI in the test on MCF7 breast and in the test on A498 renal was greater than 100 µM each time.

For the molecule `CC(C)(C)OC(=O)NC(Cc1ccccc1)NC(=O)NC(=O)OCc1ccccc1` (stereo unspecified), the TGI with SK-OV-3 ovarian, with SN12C renal, in the test on HCT-116 colon, with IGROV1 ovarian, in the test with RPMI-8226 leukemia and in the test with SF-295 CNS was greater than 100 µM in each case. The TGI in the test with MCF7 breast and in the test on BT-549 breast was greater than 100 µM in each case.

Regarding `Cc1cc(C)nc(NS(=O)(=O)c2ccc(Nc3c4ccccc4nc4c(C(=O)N5CCN(CCOS(C)(=O)=O)CC5)cccc34)cc2)n1`, the TGI with SK-OV-3 ovarian, in the test with SN12C renal, in the test on HCT-116 colon, in the test with IGROV1 ovarian, in the test with RPMI-8226 leukemia and with SF-295 CNS was greater than 100 µM throughout. The TGI with A498 renal is greater than 100 µM.

Take `COc1ccc2nc(/C(N)=C\C#N)ccc2c1`: the TGI in the test on SN12C renal, in the test on HCT-116 colon, with IGROV1 ovarian, in the test on RPMI-8226 leukemia, in the test on LOX IMVI melanoma and with SF-295 CNS was greater than 100 µM each time. The same molecule displayed a TGI with MCF7 breast greater than 100 µM.

With `Cc1cc2ncn(C3CCCCO3)c2cc1C` (stereo unspecified), the TGI with SK-OV-3 ovarian, with SN12C renal, with HCT-116 colon, in the test on IGROV1 ovarian, in the test on RPMI-8226 leukemia and in the test on LOX IMVI melanoma was greater than 100 µM throughout. In addition, the TGI with SF-295 CNS, in the test with MCF7 breast and in the test on BT-549 breast was greater than 100 µM in each case.

As to `CCCCOc1ccc(OCCCCCCCCCC[N+](C)(C)C)cc1`, the TGI was 10.8 µM in the test on SK-OV-3 ovarian; 12.2 µM in the test with SN12C renal; 9.31 µM with HCT-116 colon; 3.52 µM with IGROV1 ovarian; 2.33 µM with RPMI-8226 leukemia; 3.81 µM in the test with LOX IMVI melanoma. The values for the TGI with SF-295 CNS, in the test with MCF7 breast and in the test on A498 renal were 19.9 µM, 14.8 µM and 28.6 µM, respectively.
